As a reminder, the GI50 is the concentration that inhibits growth by half. The TGI is the concentration at which net growth stops. Lower therefore signals greater sensitivity of the cells.

Molecules are shown by their SMILES. “And” between values parts separate entries of the source, which are not always exact repeats. Equal values may be shown once.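 The compound was tested at five concentrations on cells cultured in 96-well plates, with a 48-hour exposure period. The concentration for 50% growth inhibition is given as GI50. TGI: concentration producing complete growth inhibition.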

In PubChem BioAssay (NCI) one finds GI50 and TGI data, which are given here for seven molecules.

What all share (assay): DTP human tumour cell line panel, 48 h
The test system of assay [1] is NCI-H226 lung.
Assay [2] concerns HCC-2998 colon.
Assay [3] has as its system MDA-MB-435.
The subject of assay [4] is SW-620 colon.
The test system of assay [5] is TK-10 renal.
In assay [6] the test system is SK-OV-3 ovarian.
The subject of assay [7] is KM12 colon.
The test system of assay [8] is NCI/ADR-RES ovarian.
The subject of assay [9] is ACHN renal.
The test system of assay [10] is A498 renal.

For `C[C@H](c1ccccc1)N(CCC(=O)O)C(=O)CCN(C(=O)CCN(C(=O)CCN[C@H](C)c1ccccc1)[C@H](C)c1ccccc1)[C@H](C)c1ccccc1`, the GI50 in assay [1], in assay [2], in assay [3], in [4], in assay [5] and in [6] was more than 100 µM throughout. For the same molecule, the GI50 in [7], in [8], in [9] and in assay [10] was more than 100 µM throughout. Besides, the TGI in [1], in assay [2], in assay [3], in [4], in [5] and in assay [6] was more than 100 µM throughout. Further, the TGI in assay [7], in assay [8], in assay [9] and in assay [10] was more than 100 µM throughout.
With `CC/C(=N/N=C(N)N)c1ccc(NC(=O)Nc2ccc(/C(CC)=N/N=C(N)N)cc2)cc1`, the GI50 in assay [1] was 10.8 µM; in assay [2], 7.56 µM; in assay [3], 3.72 µM; in assay [4] it was 8.29 µM; in assay [5], 2.31 µM; in assay [6], 16.5 µM. The GI50 was 3.49 µM in [7], 24.7 µM in [8], 5.78 µM in [9] and 36.3 µM in assay [10]. Besides, the total growth inhibition concentration (TGI) in assay [1] was found to be 39.8 µM; in [2] it was 36.3 µM; in assay [3], 16.2 µM; in [4], 55.6 µM; in [5], 9.96 µM; in assay [6], 64.5 µM. The total growth inhibition concentration (TGI) in assay [7] was 20.1 µM; in assay [8], more than 100 µM; in assay [9] it was 24.5 µM; in [10], more than 100 µM.
On to `COc1ccc(-c2nc3sccn3c2-c2ccnc(NCCCNS(=O)(=O)c3ccc(F)cc3)n2)cc1`, for which the GI50 is 1.59 µM in assay [1]; 5.11 µM in [2]; 2 µM in assay [3]; 3.87 µM in [4]; 3.92 µM in [5]; 3.93 µM in [6]. In addition, the GI50 was 2.57 µM in assay [7], 1.98 µM in assay [8], 1.99 µM in assay [9] and 2.6 µM in assay [10]. For the same molecule, the TGI was 5.28 µM in [1]; 57.2 µM in assay [2]; 6.51 µM in [3]; 44.4 µM in [4]; more than 100 µM in [5]; more than 100 µM in [6]. The TGI in assay [7] is 9.24 µM; in assay [8], 6.16 µM; in assay [9], 7.73 µM; in assay [10], more than 100 µM.
For the molecule `OCc1ccc(N(Cc2ccc(F)cc2)CC2CCC2)cc1Cl`, the concentration for 50% growth inhibition (GI50) in assay [1] was 0.178 µM; in [2], 11.5 µM; in [3], 15.4 µM; in assay [4] it was 7.02 µM; in assay [5] it was 0.705 µM; in assay [6], 14.8 µM. Besides, the GI50 is 14 µM in assay [7], 12.8 µM in assay [8], 13 µM in [9] and 0.092 µM in assay [10]. Besides, the TGI in [1] was found to be 0.525 µM; in assay [2], 25.2 µM; in assay [3] it was 30 µM; in assay [4], 21 µM; in [5], 3.65 µM; in [6] it was 27.9 µM. Further, the concentration for total growth inhibition (TGI) in assay [7] amounted to 27.8 µM; in assay [8] it was 28 µM; in assay [9], 26 µM; in [10], 0.34 µM.
With `CCc1ccc([O-])c(C=NCCCN(C)CCCN=Cc2cc(C)ccc2[O-])c1.[Co+3].[N-]=[N+]=[N-]`, the GI50 in assay [1] was 50 µg/mL and 32.5 µg/mL; in assay [2] it was 50 µg/mL and 123 µg/mL; in assay [3], 50 µg/mL; in assay [4] it was 50 µg/mL and > 150 µg/mL; in assay [5], 29 µg/mL; in [6], 12.9 µg/mL and 37.3 µg/mL. Moreover, the GI50 is 50 µg/mL and > 150 µg/mL in [7]; 50 µg/mL and 47.4 µg/mL in [8]; 50 µg/mL in assay [9]; 50 µg/mL and 79.7 µg/mL in [10]. The TGI in assay [1] was 50 µg/mL and 88.6 µg/mL; in assay [2], 50 µg/mL and > 150 µg/mL; in assay [3] it was 50 µg/mL; in [4], 50 µg/mL and > 150 µg/mL; in [5] it was 50 µg/mL; in assay [6], 50 µg/mL and 85.9 µg/mL. Moreover, the TGI in assay [7] is 50 µg/mL and > 150 µg/mL; in [8], 50 µg/mL and 47.4 µg/mL; in assay [9], 50 µg/mL; in [10] it was 50 µg/mL and 127 µg/mL.
`O=C1NC(=N[C@H](CO)c2ccccc2)S/C1=C\c1ccc2ncccc2c1`: the GI50 in [1] is 4.8 µM; in [2], 7.96 µM; in assay [3], 5.37 µM; in assay [4], 4.02 µM; in [5], 1.95 µM; in assay [6] it was 5.11 µM. Further, the GI50 in assay [7] was 5.77 µM; in assay [8], more than 19.3 µM; in assay [9], 4.91 µM; in assay [10], 2.07 µM. For the same molecule, the TGI was 16.5 µM in assay [1]; more than 25 µM in assay [2]; more than 25 µM in assay [3]; more than 20.5 µM in assay [4]; 20 µM in assay [5]; 17.6 µM in [6]. Further, the TGI was more than 21.4 µM in [7], more than 25 µM in [8], more than 24 µM in assay [9] and 7.13 µM in assay [10].
Consider `CCN(CCO)CCCOc1ccc2c(Nc3cc(CC(=O)Nc4cccc(F)c4)[nH]n3)ncnc2c1`, for which the GI50 in [1] was 23.8 µM; in [2] it was 20.8 µM; in [3] it was 14.1 µM; in assay [4] it was 7.23 µM; in assay [5], more than 67.8 µM; in [6] it was 15.6 µM. The GI50 in [7] was 3.45 µM and 0.82 µM; in assay [8], more than 100 µM; in assay [9] it was more than 100 µM; in assay [10], more than 49.1 µM. Besides, the TGI in [1] was more than 100 µM; in assay [2], 61.9 µM and > 3.75 µM; in assay [3], 34 µM; in [4] it was 29.8 µM and > 4.11 µM; in [5] it was more than 100 µM; in assay [6] it was more than 57.1 µM. Further, the TGI in [7] is 16 µM and > 10 µM; in assay [8], more than 100 µM; in assay [9], more than 100 µM; in assay [10], more than 100 µM.
